For 17 molecules, IC50 results are on record in patent US20220289685A1, “ANTIMALARIAL HEXAHYDROPYRIMIDINE ANALOGUES” (UCB BIOPHARMA SRL, priority 2019, published 2022).

Where a name gives a salt, the structure may show the parent alone.

For the first assay, the system named is Plasmodium falciparum 3D7 strain. In words: P. falciparum 3D7 asexual blood stage assay (SYBR green readout). Format: cell-based. The settings on record: Plasmodium falciparum, 3D7, Erythrocyte, 72 h. Here is the method:
Asexual Blood Stage Assay
The assay used to measure the effect of test compounds on a bloodstream stage of Plasmodium falciparum: 3D7 strain employs SYBR green as the readout. This is a dye that binds to double stranded deoxyribonucleic acid (DNA) with a resulting increase in fluorescence, allowing detection of P. falciparum DNA in infected erythrocytes, and thereby providing a measure of parasite growth and propagation.
P. falciparum Culture Maintenance
Erythrocytes (A+ blood) were prepared for both parasite culture and assay by washing 4 times with incomplete media (15.9 g RPMI 1640 (25 mM HEPES, L-glutamine), 1 g NaHCO3, 2 g glucose, 400 μL gentacin (500 mg/mL), 2 mL hypoxanthine solution (13.6 g/L in 0.1M NaOH pH 7.3) in 1 litre of media). The cells were centrifuged at 1800 g for 5 minutes, before decanting the supernatant and re-suspending in fresh incomplete media. On the final wash, the cells were re-suspended in complete media (incomplete media with 5 g/L AlbumaxII), and centrifuged at 1800 g for 3 minutes. This cell sediment was treated as 100% haematocrit.
P. falciparum 3D7 was cultured in erythrocytes at 5% haematocrit in complete media at 37° C. (1% O2, 3% CO2, balance N2). Cultures were split on a weekly basis to achieve a 1% parasitaemia in erythrocites at 5% haematocrit in fresh media. Culture media is replaced by fresh media every other day (2 times during the week).
On day 1, test compounds were added to assay plates using Echo dispensing technology ([…] and 20 points titration). 50 nL of each compound dilution was added to 50 μL of culture (5% haematocrit, 0.5% parasitaemia) and incubated for 72 h at 37° C. (1% O2, 3% CO2, balance N2). Final concentrations of test compounds ranged from 50,000 nM to 15 nM, in […].
On day 4, 10 μL SYBR green (Invitrogen S7563 supplied as 10,000× concentrate in DMSO) pre-diluted to 3× concentrate with Lysis buffer (20 mM Tris pH 7.9, 5% EDTA, 0.16% w/v, 1.6% TX100 v/v) was added to the cultures and incubated in the dark, overnight, at room temperature.
On day 5, fluorescent signal was measured using a BioTek plate reader (excitation 485 nm, emission 528 nm). All data were processed using IDBS ActivityBase. Raw data were converted into percent inhibition through linear regression by setting the high inhibition control (mefloquine) as 100% and the no inhibition control (DMSO) as 0%. Quality control criteria for passing plates were as follows: Z′>0.5, S:B>3, 30% CV(no inhibition control)<15. The formula used to calculate Z′ is: […]
All EC50 curve fitting was undertaken using the following bi-phasic two site dose response using XLfit model 300 (IDBS):
where A=100 minus the top of the upper curve 1 and the bottom of lower curve; B=Hill slope; log(C)=IC50 concentration at lower site; log(D)=IC50 concentration at upper site; x=inhibitor concentration; and y=% inhibition.
Usually IC50 stands for the point on the concentration scale where inhibition reaches its midpoint. On to `C[C@@H]1C[C@H](N2C(=N)N[C@](C)(c3cccc(NC(=O)c4cccc(C(F)(F)F)c4)c3Cl)CC2=O)CCO1` (relative stereo) [Example 41, N-(2-Chloro-3-{(4S)-2-imino-4-methyl-1-[(2R*,4R*)-2-methyl-tetrahydropyran-4-yl]-6-oxo-hexahydropyrimidin-4-yl}phenyl)-3-(trifluoromethyl)benzamide trifluoroacetic acid salt], for which the IC50 came out at 0.015 µM.
Turning to `C[C@@H]1C[C@H](N2C(=N)N[C@](C)(c3cccc(NC(=O)c4cc(F)cc(F)c4)c3Cl)CC2=O)CCO1` (relative stereo) [Example 42, N-(2-Chloro-3-{(4S)-2-imino-4-methyl-1-[(2R*,4R*)-2-methyl-tetrahydropyran-4-yl]-6-oxo-hexahydropyrimidin-4-yl]phenyl)-3,5-difluorobenzamide trifluoroacetic acid salt], 0.042 µM corresponded to half-maximal inhibition (IC50).
For the molecule `C[C@@H]1C[C@H](N2C(=N)N[C@](C)(c3cccc(NC(=O)c4cnc5ccncc5c4)c3Cl)CC2=O)CCO1` (relative stereo) [Example 43, N-(2-Chloro-3-{(4S)-2-imino-4-methyl-1-[(2R*,4R*)-2-methyl-tetrahydropyran-4-yl]-6-oxo-hexahydropyrimidin-4-yl]phenyl)-1,6-naphthyridine-3-carboxamide trifluoroacetic acid salt], half-maximal inhibition (IC50) required 0.092 µM.
Same read-out and setting: the same measure for `C[C@@H]1C[C@H](N2C(=N)N[C@](C)(c3cccc(NC(=O)c4cc5cccc(F)c5o4)c3Cl)CC2=O)CCO1` (relative stereo) [Example 44, N-(2-Chloro-3-{(4S)-2-imino-4-methyl-1-[(2R*,4R*)-2-methyl-tetrahydropyran-4-yl]-6-oxo-hexahydropyrimidin-4-yl]phenyl)-7-fluorobenzofuran-2-carboxamide trifluoroacetic acid salt]: 0.02 µM; for `COc1ccncc1C(=O)Nc1cccc([C@]2(C)CC(=O)N([C@@H]3CCO[C@H](C)C3)C(=N)N2)c1Cl` (relative stereo) [Example 45, N-(2-Chloro-3-{(4S)-2-imino-4-methyl-1-[(2R*,4R*)-2-methyl-tetrahydropyran-4-yl]-6-oxo-hexahydropyrimidin-4-yl]phenyl)-4-methoxypyridine-3-carboxamide trifluoroacetic acid salt]: 0.156 µM.
Same read-out and setting: the same measure for `C[C@@H]1C[C@H](N2C(=N)N[C@](C)(c3cccc(NC(=O)c4cc5ccccc5nn4)c3Cl)CC2=O)CCO1` (relative stereo) [Example 46, N-(2-Chloro-3-{(4S)-2-imino-4-methyl-1-[(2R*,4R*)-2-methyl-tetrahydropyran-4-yl]-6-oxo-hexahydropyrimidin-4-yl]phenyl)-cinnoline-3-carboxamide trifluoroacetic acid salt]: 0.041 µM.
Molecule `C[C@@H]1C[C@H](N2C(=N)N[C@](C)(c3cccc(NC(=O)c4ccc(OC(F)(F)F)cn4)c3Cl)CC2=O)CCO1` (relative stereo) [Example 47, N-(2-Chloro-3-{(4S)-2-imino-4-methyl-1-[(2R*,4R*)-2-methyl-tetrahydropyran-4-yl]-6-oxo-hexahydropyrimidin-4-yl]phenyl)-5-(trifluoromethoxy)pyridine-2-carboxamide trifluoroacetic acid salt] had a concentration for half-maximal inhibition (IC50) of 0.242 µM.
Same read-out and setting: the same measure for `C[C@@H]1C[C@H](N2C(=N)N[C@](C)(c3cccc(NC(=O)c4ncccc4C(F)(F)F)c3Cl)CC2=O)CCO1` (relative stereo) [Example 49, N-(2-Chloro-3-{(4S)-2-imino-4-methyl-1-[(2R*,4R*)-2-methyl-tetrahydropyran-4-yl]-6-oxo-hexahydropyrimidin-4-yl]phenyl)-3-(trifluoromethyl)pyridine-2-carboxamide trifluoroacetic acid salt]: 0.017 µM.
On the same count and under the same terms, the same measure for `COc1cccnc1C(=O)Nc1cccc([C@]2(C)CC(=O)N([C@@H]3CCO[C@H](C)C3)C(=N)N2)c1Cl` (relative stereo) [Example 50, N-(2-Chloro-3-{(4S)-2-imino-4-methyl-1-[(2R*,4R*)-2-methyl-tetrahydropyran-4-yl]-6-oxo-hexahydropyrimidin-4-yl}phenyl)-3-methoxypyridine-2-carboxamide trifluoroacetic acid salt]: 0.056 µM.
On the same count and under the same terms, for `C[C@@H]1C[C@H](N2C(=N)N[C@](C)(c3cccc(NC(=O)c4ccnn4C)c3Cl)CC2=O)CCO1` (relative stereo) [Example 51, N-(2-Chloro-3-{(4S)-2-imino-4-methyl-1-[(2R*,4R*)-2-methyl-tetrahydropyran-4-yl]-6-oxo-hexahydropyrimidin-4-yl}phenyl)-2-methylpyrazole-3-carboxamide trifluoroacetic acid salt] the value was 0.059 µM.
As for `C[C@@H]1C[C@H](N2C(=N)N[C@](C)(c3cccc(NC(=O)c4cnc5cccnc5c4)c3Cl)CC2=O)CCO1` (relative stereo) [Example 52, N-(2-Chloro-3-{(4S)-2-imino-4-methyl-1-[(2R*,4R*)-2-methyl-tetrahydropyran-4-yl]-6-oxo-hexahydropyrimidin-4-yl}phenyl)-1,5-naphthyridine-3-carboxamide trifluoroacetic acid salt], the IC50 turned out to be 0.115 µM.
The same measure, in the same setting: for `C[C@@H]1C[C@H](N2C(=N)N[C@](C)(c3cccc(NC(=O)c4ccc(C5CC5)nc4)c3Cl)CC2=O)CCO1` (relative stereo) [Example 53, N-(2-Chloro-3-{(4S)-2-imino-4-methyl-1-[(2R*,4R*)-2-methyl-tetrahydropyran-4-yl]-6-oxo-hexahydropyrimidin-4-yl}phenyl)-6-cyclopropylpyridine-3-carboxamide hydrochloride] the value was 0.63 µM; for `Cc1ccc(C(=O)Nc2cccc([C@]3(C)CC(=O)N([C@@H]4CCO[C@H](C)C4)C(=N)N3)c2Cl)nn1` (relative stereo) [Example 54, N-(2-Chloro-3-{(4S)-2-imino-4-methyl-1-[(2R*,4R*)-2-methyl-tetrahydropyran-4-yl]-6-oxo-hexahydropyrimidin-4-yl}phenyl)-6-methylpyridazine-3-carboxamide hydrochloride], 0.17 µM; for `C[C@@H]1C[C@H](N2C(=N)N[C@](C)(c3cccc(NC(=O)c4cc(C(F)(F)F)cnn4)c3Cl)CC2=O)CCO1` (relative stereo) [Example 55, N-(2-Chloro-3-{(4S)-2-imino-4-methyl-1-[(2R*,4R*)-2-methyl-tetrahydropyran-4-yl]-6-oxo-hexahydropyrimidin-4-yl}phenyl)-5-(trifluoromethyl)pyridazine-3-carboxamide hydrochloride], 0.053 µM.
The same measure, in the same setting: the same measure for `C[C@@H]1C[C@H](N2C(=N)N[C@](C)(c3cccc(NC(=O)c4cnccc4C(F)(F)F)c3Cl)CC2=O)CCO1` (relative stereo) [Example 56, N-(2-Chloro-3-{(4S)-2-imino-4-methyl-1-[(2R*,4R*)-2-methyl-tetrahydropyran-4-yl]-6-oxo-hexahydropyrimidin-4-yl}phenyl)-4-(trifluoromethyl)pyridine-3-carboxamide hydrochloride]: 0.021 µM.
On the same count and under the same terms, the same measure for `C[C@@H]1C[C@H](N2C(=N)N[C@](C)(c3cccc(NC(=O)c4cccnc4C4CC4)c3Cl)CC2=O)CCO1` (relative stereo) [Example 57, N-(2-Chloro-3-{(4S)-2-imino-4-methyl-1-[(2R*,4R*)-2-methyl-tetrahydropyran-4-yl]-6-oxo-hexahydropyrimidin-4-yl]phenyl)-2-cyclopropylpyridine-3-carboxamide hydrochloride]: 0.476 µM.

Staying with this assay, now noted: Plasmodium falciparum, Erythrocyte; P. falciparum 3D7 in human erythrocytes, 72 h incubation, SYBR green fluorescence; read-out: IC50.
As to `C[C@@H]1C[C@H](N2C(=N)N[C@](C)(c3cccc(NC(=O)c4nccn5ccnc45)c3Cl)CC2=O)CCO1` (relative stereo) [Example 48, N-(2-Chloro-3-{(4S)-2-imino-4-methyl-1-[(2R*,4R*)-2-methyl-tetrahydropyran-4-yl]-6-oxo-hexahydropyrimidin-4-yl}phenyl)-imidazo[1,2-alpyrazine-8-carboxamidetrifluoroacetic acid salt], the 50% inhibitory concentration (IC50) came out at 0.055 µM.
